In US20080255107A1, “Fungicidal Mixtures Comprising N-[2-(Haloalk(Enyl)Oxy)Phenyl]Carboxamides” (BASF SE, priority 2005, published 2008):

Columns and labels:
Type in all cases: in vivo
Botrytis cinerea = assay: Activity against gray mold on bell pepper leaves caused by Botrytis cinerea, 1 day protective application; conditions: single active compound, assessed after 5 days
Protocol: The active compounds, separately or jointly, were prepared as a stock solution comprising 25 mg of active compound which was made up to 10 ml using a mixture of acetone and/or dimethyl sulfoxide and the emulsifier Uniperol® EL (wetting agent having an emulsifying and dispersing action based on ethoxylated alkylphenols) in a ratio by volume of solvent/emulsifier of 99:1. The mixture was then made up to 100 ml with water. This stock solution was diluted with the solvent/emulsifier/water mixture described to give the concentration of active compound stated below. Alternatively, the active compounds triticonazole and pyraclostrobin were used as a commercial finished formulation and diluted with water to the stated active compound concentrations. The visually determined percentages of infected leaf areas were converted into efficacies in % of the untreated control: The efficacy (E) is calculated as follows using Abbot's formula: E=(1−α/β)·100 α corresponds to the fungicidal infection of the treated plants in % and β corresponds to the fungicidal infection of the untreated (control) plants in % An efficacy of 0 means that the infection level of the treated plants corresponds to that of the untreated control plants; an efficacy of 100 means that the treated plants were not infected. The expected efficacies of active compound combinations were determined using Colby's formula (Colby, S. R. “Calculating synergistic and antagonistic responses of herbicide combinations”, Weeds, 15, pp. 20-22, 1967) and compared with the observed efficacies. E=x+y−x·y/100 Colby's formula • E expected efficacy, expressed in % of the untreated control, when using the mixture of the active compounds A and B at the concentrations a and b; • x efficacy, expressed in % of the untreated control, when using the active compound A at the concentration a; • y efficacy, expressed in % of the untreated control, when using the active compound B at the concentration b. […] After 5 days, the extent of the fungal infection on the leaves could be determined visually in %.

Puccinia recondita = assay: Curative activity against brown rust of wheat caused by Puccinia recondita; conditions: single active compound, wheat seedlings, sprayed 1 day after inoculation, read after 7 days, efficacy in % of untreated control (Abbot)
Protocol: The active compounds, separately or jointly, were prepared as a stock solution comprising 25 mg of active compound which was made up to 10 ml using a mixture of acetone and/or dimethyl sulfoxide and the emulsifier Uniperol® EL (wetting agent having an emulsifying and dispersing action based on ethoxylated alkylphenols) in a ratio by volume of solvent/emulsifier of 99:1. The mixture was then made up to 100 ml with water. This stock solution was diluted with the solvent/emulsifier/water mixture described to give the concentration of active compound stated below. Alternatively, the active compounds triticonazole and pyraclostrobin were used as a commercial finished formulation and diluted with water to the stated active compound concentrations. The visually determined percentages of infected leaf areas were converted into efficacies in % of the untreated control: The efficacy (E) is calculated as follows using Abbot's formula: E=(1−α/β)·100 α corresponds to the fungicidal infection of the treated plants in % and β corresponds to the fungicidal infection of the untreated (control) plants in % An efficacy of 0 means that the infection level of the treated plants corresponds to that of the untreated control plants; an efficacy of 100 means that the treated plants were not infected. The expected efficacies of active compound combinations were determined using Colby's formula (Colby, S. R. “Calculating synergistic and antagonistic responses of herbicide combinations”, Weeds, 15, pp. 20-22, 1967) and compared with the observed efficacies. E=x+y−x·y/100 Colby's formula • E expected efficacy, expressed in % of the untreated control, when using the mixture of the active compounds A and B at the concentrations a and b; • x efficacy, expressed in % of the untreated control, when using the active compound A at the concentration a; • y efficacy, expressed in % of the untreated control, when using the active compound B at the concentration b. […] The extent of the rust fungus development on the leaves was then determined.

Alternaria solani = assay: Activity against early blight of tomato caused by Alternaria solani (protective spray, potted tomato plants); conditions: single active compound, 16 mg/l; tomato leaves, sprayed 1 day before infection, read after 5 days; efficacy in % of untreated control (Abbot)
Protocol: The active compounds, separately or jointly, were prepared as a stock solution comprising 25 mg of active compound which was made up to 10 ml using a mixture of acetone and/or dimethyl sulfoxide and the emulsifier Uniperol® EL (wetting agent having an emulsifying and dispersing action based on ethoxylated alkylphenols) in a ratio by volume of solvent/emulsifier of 99:1. The mixture was then made up to 100 ml with water. This stock solution was diluted with the solvent/emulsifier/water mixture described to give the concentration of active compound stated below. […] The visually determined percentages of infected leaf areas were converted into efficacies in % of the untreated control: The efficacy (E) is calculated as follows using Abbot's formula: E=(1−α/β)·100 α corresponds to the fungicidal infection of the treated plants in % and β corresponds to the fungicidal infection of the untreated (control) plants in % An efficacy of 0 means that the infection level of the treated plants corresponds to that of the untreated control plants; an efficacy of 100 means that the treated plants were not infected. The expected efficacies of active compound combinations were determined using Colby's formula (Colby, S. R. “Calculating synergistic and antagonistic responses of herbicide combinations”, Weeds, 15, pp. 20-22, 1967) and compared with the observed efficacies. […]

| SMILES | Observed activity (% infection) (Botrytis cinerea; 63 mg/l) [%] | Observed activity (% infection) (Puccinia recondita; 63 mg/l) [%] | Observed efficacy (% of untreated control, Abbott) (Alternaria solani) [%] | Observed activity (% infection) (Puccinia recondita; 0.25 mg/l) [%] | Observed activity (% infection) (Botrytis cinerea; 16 mg/l) [%] |
| --- | --- | --- | --- | --- | --- |
| COc1ccc(C(=CC(=O)N2CCOCC2)c2ccc(Cl)cc2)cc1OC [Dimethomorph, 3-(4-chlorophenyl)-3-(3,4-dimethoxyphenyl)-1-morpholin-4-yl-propenone] | 0 | 0 |  |  |  |
| COc1cc(C)c(C(=O)c2c(OC)ccc(Br)c2C)c(OC)c1OC [Metrafenone, 3′-bromo-2,3,4,6′-tetramethoxy-2′,6-dimethylbenzophenone] | 0 | 0 |  |  |  |
| CC1(C)CC/C(=C\c2ccc(Cl)cc2)C1(O)Cn1cncn1 (stereo not shown) [Triticonazole, (5E)-5-[(4-chlorophenyl)methylene]-2,2-dimethyl-1-(1H-1,2,4-triazol-1-ylmethyl)cyclopentanol] |  |  | 20 | 0 |  |
| COC(=O)N(OC)c1ccccc1COc1ccn(-c2ccc(Cl)cc2)n1 [pyraclostrobin] |  |  |  |  | 11 |
